Patent EP0742012A2, “Pharmaceutical composition containing substance inhibiting HSP47 production” (priority 1995, dated 1996)

Columns and labels:
HSP47 = test: Amount of HSP47 produced in human cancer cell lines after substance treatment and heat shock, western blotting; format: cell-based; design: key to amounts of HSP47 produced: ↓: means that the amounts of HSP47 produced were reduced by the flavonoid-treatment in comparison with the control tests; conditions: for amounts of HSP47 produced: vs control
mice [1] = conditions: mouse, in vivo, po
mice [2] = test: Acute toxicity test for mice by oral administration
mouse = conditions: in vivo, iv; cited from earlier work
[3] = colon cancer cell line COLO 205, 100 µM in the medium
[4] = neuroblastoma cell line SK-N-MC, 100 µM in the medium
[5] = uterus cancer cell line HeLa S3, 100 µM in the medium

With C[C@@]12C[C@@]3(O)O[C@@H](O1)[C@]1(COC(=O)c4ccccc4)[C@H]3C[C@@]12O[C@@H]1O[C@H](CO)[C@@H](O)[C@H](O)[C@H]1O [paeoniflorin] the HSP47 production (HSP47; uterus cancer cell line HeLa S3) was “inhibits the HSP47 production”, the toxicity (mice [1]) was “does not have toxicity” and the death (mice [2]) was “does hardly cause death”.
In the case of O=c1cc(-c2ccccc2)oc2cc(O)c(O)c(O)c12 [baicalein, 5,6,7-trihydroxy-2-phenyl-4H-1-benzopyran-4-one], the “amounts of HSP47 produced” value (HSP47; uterus cancer cell line HeLa S3, 10 µM in the medium) is reported as “↓”.
In the case of (+) -Catechin, the “amounts of HSP47 produced” value (HSP47; [3]) is reported as “↓”, the “amounts of HSP47 produced” value (HSP47; lung cancer cell line H69, 100 µM in the medium) is reported as “↓” and the “amounts of HSP47 produced” value (HSP47; [4]) is reported as “↓”. The “amounts of HSP47 produced” value (HSP47; [5]) was “↓”.
With COc1cc(C=CC(=O)O)ccc1O [ferulic acid, 4-hydroxy-3-methoxycinnamic acid] the HSP47 production (HSP47; uterus cancer cell line HeLa S3, final concentration 100 µM) was “inhibits the HSP47 production”.
In the case of C[C@@H]1O[C@@H](OC[C@H]2O[C@@H](Oc3c(-c4ccc(O)c(O)c4)oc4cc(O)cc(O)c4c3=O)[C@H](O)[C@@H](O)[C@@H]2O)[C@H](O)[C@H](O)[C@H]1O [rutin, quercetin-3-rutinoside], the “amounts of HSP47 produced” value (HSP47; [4]) is given as “↓” and the “acute toxicity (LD50)” value (mouse) is given as 950 mg/kg.
For Cc1c(C)c2c(c(C)c1O)CCC(C)(CCCC(C)CCCC(C)CCCC(C)C)O2 (stereo not drawn) [α-tocopherol, 3,4-dihydro-2,5,7,8-tetramethyl-2-(4,8,12-trimethyltridecyl)-2H-1-benzopyran-6-ol], the HSP47 production (HSP47; uterus cancer cell line HeLa S3, final concentration 20 µM) was “inhibits the HSP47 production”.
With O=c1c(O)c(-c2ccc(O)c(O)c2)oc2cc(O)cc(O)c12 [quercetin, 2-(3,4-dihydroxyphenyl)-3,5,7-trihydroxy-4H-1-benzopyran-4-one] the “amounts of HSP47 produced” value (HSP47; [3]) was “↓”, the “amounts of HSP47 produced” value (HSP47; kidney cancer cell line ACHN, 100 µM in the medium) was “↓” and the “amounts of HSP47 produced” value (HSP47; [5]) was “↓”.
